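Values below derive from 48-hour exposures of cells grown in 96-well plates, with endpoints linearly interpolated between the two concentrations bracketing the appropriate inhibition level. GI50 = concentration required for 50% inhibition of growth. At the TGI there is no net growth.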
How the values were obtained:
Test in all cases: NCI-60 cell line screen, 48 h
LOX IMVI melanoma = tested on: LOX IMVI melanoma
ACHN renal = tested on: ACHN renal
NCI-H226 lung = tested on: NCI-H226 lung
SN12C renal = tested on: SN12C renal
HCT-15 colon = tested on: HCT-15 colon
SF-295 CNS = tested on: SF-295 CNS
MDA-MB-231 breast = tested on: MDA-MB-231 breast
MCF7 breast = tested on: MCF7 breast
OVCAR-3 ovarian = tested on: OVCAR-3 ovarian
SF-268 CNS = tested on: SF-268 CNS

CC1=C2C(=O)[C@H]3[C@@H](CC=C4C[C@@H](O)CC[C@@]43C)[C@@H]2CC[C@]12O[C@@H]1C[C@H](C)CN[C@H]1[C@H]2C
TGI (LOX IMVI melanoma): > 58.2 µM
TGI (ACHN renal): > 56.3 µM
TGI (NCI-H226 lung): > 61 µM
TGI (SN12C renal): > 60.6 µM
TGI (HCT-15 colon): > 81.3 µM
TGI (SF-295 CNS): > 58.7 µM
TGI (MDA-MB-231 breast): > 100 µM
TGI (MCF7 breast): > 100 µM
TGI (OVCAR-3 ovarian): > 56 µM
TGI (SF-268 CNS): > 66.7 µM

COC(=O)C(CCCC1(c2ccccc2)OCCO1)C(C)=O (stereo unspecified)
TGI (LOX IMVI melanoma): > 100 µM
TGI (ACHN renal): > 100 µM
TGI (NCI-H226 lung): > 100 µM
TGI (SN12C renal): > 100 µM
TGI (HCT-15 colon): > 100 µM
TGI (SF-295 CNS): > 100 µM
TGI (OVCAR-3 ovarian): > 100 µM
TGI (SF-268 CNS): > 100 µM

O=[N+]([O-])c1ccc(C2=NOC(c3ccccc3F)N2C23CC4CC(CC(C4)C2)C3)cc1 (stereo unspecified)
TGI (LOX IMVI melanoma): > 100 µM
TGI (ACHN renal): > 100 µM
TGI (NCI-H226 lung): > 100 µM
TGI (SN12C renal): > 100 µM
TGI (HCT-15 colon): > 100 µM
TGI (SF-295 CNS): > 100 µM
TGI (MDA-MB-231 breast): > 100 µM
TGI (MCF7 breast): > 100 µM
TGI (OVCAR-3 ovarian): > 100 µM
TGI (SF-268 CNS): > 100 µM

COCC1OC(OC2C3=C(C(C)C)CCC3(C)/C=C3\C(CCC3(O)COC)C(C)C2O)C(O)C2OC3OC12OC3(C)C1CO1 (stereo unspecified)
TGI (LOX IMVI melanoma): 99.3 µM
TGI (ACHN renal): > 100 µM
TGI (NCI-H226 lung): 43.1 µM
TGI (SN12C renal): > 100 µM
TGI (HCT-15 colon): > 100 µM
TGI (SF-295 CNS): > 100 µM
TGI (MDA-MB-231 breast): > 100 µM
TGI (MCF7 breast): > 100 µM
TGI (OVCAR-3 ovarian): > 100 µM
TGI (SF-268 CNS): 68.4 µM

Cc1cn(C2CCC(/C=N\O)O2)c(=O)[nH]c1=O (stereo unspecified)
TGI (LOX IMVI melanoma): > 100 µM
TGI (ACHN renal): > 100 µM
TGI (NCI-H226 lung): > 100 µM
TGI (SN12C renal): > 100 µM
TGI (HCT-15 colon): > 100 µM
TGI (SF-295 CNS): > 100 µM
TGI (MDA-MB-231 breast): > 100 µM
TGI (MCF7 breast): > 100 µM
TGI (OVCAR-3 ovarian): > 100 µM

Cc1cccc2c1Oc1ccccc1C2NC(=O)c1ccc([N+](=O)[O-])cc1 (stereo unspecified)
TGI (LOX IMVI melanoma): > 100 µM
TGI (ACHN renal): > 100 µM
TGI (NCI-H226 lung): 63.9 µM
TGI (SN12C renal): 91 µM
TGI (HCT-15 colon): > 100 µM
TGI (SF-295 CNS): > 100 µM
TGI (MDA-MB-231 breast): > 100 µM
TGI (OVCAR-3 ovarian): > 100 µM
TGI (SF-268 CNS): > 100 µM

CC1OC(OC2C(O[C@H]3CC[C@@]4(C)[C@@H](CC[C@@H]5[C@@H]4CC[C@]4(C)[C@@H]6[C@H](C[C@@H]54)O[C@]4(CC[C@@H](C)CO4)[C@H]6C)C3)OC(CO)C(OC3OC(CO)C(O)C(OC4OCC(O)C(O)C4O)C3OC3OCC(O)C(O)C3O)C2O)C(O)C(O)C1O (stereo partly specified)
TGI (LOX IMVI melanoma): 2.91 µM
TGI (ACHN renal): 2.2 µM
TGI (NCI-H226 lung): 3.58 µM
TGI (HCT-15 colon): 2.61 µM
TGI (SF-295 CNS): 1.93 µM
TGI (MDA-MB-231 breast): 9.57 µM
TGI (MCF7 breast): 0.914 µM
TGI (OVCAR-3 ovarian): 3.13 µM
TGI (SF-268 CNS): 3.37 µM

COc1nc(SC)nc2c1cnn2C1OC(C(O)CO)C(OC)C1O (stereo unspecified)
TGI (LOX IMVI melanoma): > 100 µM
TGI (NCI-H226 lung): > 100 µM
TGI (SN12C renal): > 100 µM
TGI (HCT-15 colon): > 100 µM
TGI (SF-295 CNS): > 100 µM
TGI (MCF7 breast): > 100 µM
TGI (OVCAR-3 ovarian): > 100 µM
TGI (SF-268 CNS): > 100 µM

O=C1Nc2cccc(Cl)c2/C1=C\c1c(Cl)nc2sccn12
TGI (LOX IMVI melanoma): > 100 µM
TGI (ACHN renal): 29.4 µM
TGI (SN12C renal): > 100 µM
TGI (HCT-15 colon): > 100 µM
TGI (SF-295 CNS): > 100 µM
TGI (MDA-MB-231 breast): 40.3 µM
TGI (MCF7 breast): > 100 µM
TGI (OVCAR-3 ovarian): > 100 µM
TGI (SF-268 CNS): 52.5 µM

O=P(Oc1ccccc1)(Oc1ccccc1)Oc1c[nH]c2ccccc12
TGI (LOX IMVI melanoma): 49.9 µM
TGI (NCI-H226 lung): 31.3 µM
TGI (SN12C renal): 26 µM
TGI (HCT-15 colon): 28.8 µM
TGI (SF-295 CNS): 13.1 µM
TGI (MDA-MB-231 breast): 31.3 µM
TGI (MCF7 breast): 25.3 µM
TGI (OVCAR-3 ovarian): 39.1 µM
TGI (SF-268 CNS): 24.3 µM

C[C@H](Nc1c(O)c2c(c(O)c1Cl)C(=O)C=CC2=O)C(=O)Nc1ccc([N+](=O)[O-])cc1
TGI (ACHN renal): 9.31 µM
TGI (NCI-H226 lung): 6.84 µM
TGI (SN12C renal): 2.99 µM
TGI (HCT-15 colon): 7.55 µM
TGI (SF-295 CNS): 7.54 µM
TGI (MDA-MB-231 breast): 4.22 µM
TGI (MCF7 breast): 3.42 µM
TGI (OVCAR-3 ovarian): 2.75 µM
TGI (SF-268 CNS): 5.79 µM

CCCC/C=C/C1Cc2ccccc2CN1S(=O)(=O)c1ccc(C)cc1 (stereo unspecified)
TGI (LOX IMVI melanoma): 22.3 µM
TGI (ACHN renal): 22.5 µM
TGI (NCI-H226 lung): 25.8 µM
TGI (SN12C renal): 23 µM
TGI (HCT-15 colon): 49.2 µM
TGI (SF-295 CNS): 35.6 µM
TGI (OVCAR-3 ovarian): 24.1 µM
TGI (SF-268 CNS): 30 µM

CCCCc1c2c(nc3c1CCCC3O)/C(=C/c1ccccc1)CCC2 (stereo unspecified)
TGI (LOX IMVI melanoma): 34.5 µM
TGI (ACHN renal): > 100 µM
TGI (NCI-H226 lung): 68 µM
TGI (SN12C renal): 62.5 µM
TGI (HCT-15 colon): 61.6 µM
TGI (SF-295 CNS): > 100 µM
TGI (OVCAR-3 ovarian): 35.9 µM
TGI (SF-268 CNS): 85.3 µM

CSc1nc(-c2cc3c(c(SC)n2)CCCCC3)cc2c1CCCCC2
TGI (LOX IMVI melanoma): > 100 µM
TGI (ACHN renal): > 100 µM
TGI (NCI-H226 lung): > 100 µM
TGI (SN12C renal): > 100 µM
TGI (HCT-15 colon): > 100 µM
TGI (SF-295 CNS): > 100 µM
TGI (MDA-MB-231 breast): > 100 µM
TGI (OVCAR-3 ovarian): > 100 µM
TGI (SF-268 CNS): > 100 µM

CCCN(CCCC(NC(C)=O)C(=O)NCc1ccccc1)C(=O)NC (stereo unspecified)
TGI (LOX IMVI melanoma): > 100 µM
TGI (ACHN renal): > 100 µM
TGI (NCI-H226 lung): > 100 µM
TGI (SN12C renal): > 100 µM
TGI (HCT-15 colon): > 100 µM
TGI (SF-295 CNS): > 100 µM
TGI (OVCAR-3 ovarian): > 100 µM
TGI (SF-268 CNS): > 100 µM

CCOC(=O)c1c(C)c2c(n1C)CCc1cn[nH]c1-2
TGI (LOX IMVI melanoma): > 100 µM
TGI (NCI-H226 lung): > 100 µM
TGI (SN12C renal): > 100 µM
TGI (HCT-15 colon): > 100 µM
TGI (SF-295 CNS): > 100 µM
TGI (MCF7 breast): > 100 µM
TGI (OVCAR-3 ovarian): > 100 µM
TGI (SF-268 CNS): > 100 µM

NCCCNc1nc2ccccc2c2c(=O)c3cc(C(F)(F)F)ccc3sc12
GI50 (ACHN renal): 1.59 µM
TGI (ACHN renal): 2.94 µM
GI50 (SN12C renal): 1.73 µM
TGI (SN12C renal): 3.23 µM
GI50 (SF-295 CNS): 1.8 µM
TGI (SF-295 CNS): 3.21 µM
GI50 (MDA-MB-231 breast): 1.4 µM
TGI (MDA-MB-231 breast): 2.75 µM

COC(OC)c1cccc2c1C(=O)CCC1(O)c3ccccc3C1C2 (stereo unspecified)
TGI (LOX IMVI melanoma): > 100 µM
TGI (NCI-H226 lung): > 100 µM
TGI (SN12C renal): > 100 µM
TGI (HCT-15 colon): > 100 µM
TGI (SF-295 CNS): > 100 µM
TGI (OVCAR-3 ovarian): > 100 µM
TGI (SF-268 CNS): > 100 µM

Nc1nc(SCCNC(=O)CCc2ccc(O)cc2)nc2c1ncn2C1OC(CO)C(O)C1O (stereo unspecified)
TGI (LOX IMVI melanoma): > 203 µM
TGI (ACHN renal): > 203 µM
TGI (NCI-H226 lung): > 203 µM
TGI (SN12C renal): > 203 µM
TGI (HCT-15 colon): > 203 µM
TGI (SF-295 CNS): > 203 µM
TGI (OVCAR-3 ovarian): > 203 µM
TGI (SF-268 CNS): > 203 µM

COc1ccc(C2C3C(=O)C=CC(=O)C3[C@@H]2C)cc1OC (stereo partly specified)
TGI (LOX IMVI melanoma): > 100 µM
TGI (ACHN renal): > 100 µM
TGI (NCI-H226 lung): > 100 µM
TGI (HCT-15 colon): 62.4 µM
TGI (SF-295 CNS): > 100 µM
TGI (OVCAR-3 ovarian): > 100 µM
TGI (SF-268 CNS): > 100 µM

Clc1ccc(SCCSCCCCCCCCCCSCCSc2ccc(Cl)cc2)cc1
TGI (LOX IMVI melanoma): > 100 µM
TGI (ACHN renal): > 100 µM
TGI (NCI-H226 lung): > 100 µM
TGI (SN12C renal): > 100 µM
TGI (HCT-15 colon): > 100 µM
TGI (SF-295 CNS): > 100 µM
TGI (OVCAR-3 ovarian): > 100 µM
TGI (SF-268 CNS): > 100 µM

CCCCn1c(C)c(C(=O)OCC)s/c1=N/Nc1nc2ccccc2nc1-c1ccccc1
TGI (LOX IMVI melanoma): > 100 µM
TGI (ACHN renal): > 100 µM
TGI (NCI-H226 lung): > 100 µM
TGI (SN12C renal): > 100 µM
TGI (HCT-15 colon): > 100 µM
TGI (SF-295 CNS): > 100 µM
TGI (MDA-MB-231 breast): > 100 µM
TGI (MCF7 breast): > 100 µM
TGI (OVCAR-3 ovarian): > 100 µM

CC(=O)OCC1OC(n2c3c(c(-c4ccco4)c(C#N)c2=S)CCC3)C(OC(C)=O)C(OC(C)=O)C1OC(C)=O (stereo unspecified)
TGI (LOX IMVI melanoma): > 100 µM
TGI (ACHN renal): > 100 µM
TGI (SN12C renal): > 100 µM
TGI (HCT-15 colon): > 100 µM
TGI (SF-295 CNS): > 100 µM
TGI (MCF7 breast): > 100 µM
TGI (OVCAR-3 ovarian): > 100 µM
TGI (SF-268 CNS): > 100 µM

From PubChem BioAssay (NCI)
